Drawing on ChEMBL document CHEMBL3608266, “Active Constituents from Drynaria fortunei Rhizomes on the Attenuation of Aβ(25-35)-Induced Axonal Atrophy” (J Nat Prod, 2015), this text covers Activity for 2 compounds.

The structures appear in SMILES notation. Active and inactive are the calls of the source. No cut-off for these calls is given here.

The test concerns Cortical neurone. The test can be described thus: Induction of axonal regeneration in mouse cortical neurons assessed as reversal of Abeta (25 to 35)-induced axonal atrophy at 10 uM treated 3 days after Abeta (25 to 35) challenge and measured 4 days post compound dosing by pNF-H and MAP2 immunostaining method. The format is functional.

As for `O=C(O)/C=C/c1ccc(O[C@@H]2O[C@H](CO)[C@@H](O)[C@H](O)[C@H]2O)c(O)c1`, the result was Active. For `C[C@@H]1O[C@@H](O[C@H]2[C@H](Oc3cc(O)c4c(c3)O[C@H](c3ccc(O)c(O)c3)CC4=O)O[C@H](CO)[C@@H](O)[C@@H]2O)[C@H](O)[C@H](O)[C@H]1O`, the result was Active.
